Assay results: ChEMBL document CHEMBL1156829 (Proc Natl Acad Sci U S A, 2008)
pEC50: −log10 of the molar value.

Tests used:
[1] = system: Plasmodium falciparum; assay: NOVARTIS: Inhibition of Plasmodium falciparum 3D7 (drug-susceptible) proliferation in erythrocyte-based infection assay; assay type: functional, organism-based; conditions: Plasmodium falciparum, 3D7
[2] = NOVARTIS: Cytotoxicity against human hepatocellular carcinoma cell line (Huh7); assay type: toxicity, cell-based, Huh-7; conditions: Huh7 cells (hepatocellular carcinoma cell line)
[3] = system: Plasmodium falciparum; assay: NOVARTIS: Inhibition of Plasmodium falciparum W2 (drug-resistant) proliferation in erythrocyte-based infection assay; assay type: functional, organism-based; conditions: Plasmodium falciparum, W2; read-out: EC50

Row | Structure (SMILES) | pEC50 [1] | CC50 [2] | pEC50 [3]
1 | COC(=O)C1=C(C)NC2=C(C(=O)CC(c3ccc(OC)cc3)C2)C1c1ccc(F)cc1 (centres undefined) | 6.72 | > 100000 nM | 7.26
2 | COc1ccc(C=NNc2nc(Nc3ccc([N+](=O)[O-])cc3)nc(N3CCN(C)CC3)n2)cc1OC | 5.74 | 15200 nM | 6.35
3 | O=C(c1ccc2nc(N3CCCCC3)sc2c1)N1CCN(Cc2ccc3c(c2)OCO3)CC1 | 6.39 | > 100000 nM | 6.53
4 | COc1ccc(N2C(=O)[C@@H]3C[C@H]2CN3C(=O)c2cccc(Cn3nc(C)cc3C)c2)cc1Cl | < 5.90 | > 3800 nM | 7.57
5 | COC(=O)c1cccc(NC(=O)C(=Cc2cccc([N+](=O)[O-])c2)NC(=O)c2ccccc2OC)c1 | 6.00 | > 100000 nM | 5.54
6 | CC(=O)O[C@]1(C(C)=O)CCC2C3C=CC4=CC(=O)CC[C@]4(C)C3CC[C@@]21C (some centres undefined) | < 5.92 | > 10000 nM | 5.99
7 | CCCC(C(=O)OCC)C(C)=NNc1ccccc1[N+](=O)[O-] (centres undefined) | 5.90 | > 100000 nM | 5.78
8 | CCC(O)CN(c1ccccc1)c1ccccc1 (centres undefined) | < 5.90 | > 10000 nM | < 5.99
9 | O=C(NCCc1ccccc1)c1cnc(NCCCn2ccnc2)nc1Nc1ccccc1 | 6.26 | > 10000 nM | 6.07
10 | CC(=O)N1CC(=NNC(=O)C(C)Nc2c(C)cccc2C)c2ccccc21 (centres undefined) | 5.71 | > 10000 nM | 5.85
11 | CCCNCC(O)COc1ccccc1C(=O)CCc1ccccc1 (centres undefined) [PROPAFENONE] | 6.60 | 28900 nM | 6.93
12 | COc1cc(-c2nc3ccc(N4CCN(C)CC4)cc3[nH]2)cc(OC)c1OC | 6.13 | 21200 nM | 5.25
13 | CCc1ccccc1NC(C)=O | < 4.90 | > 100000 nM | 5.27
14 | COc1ccc(-c2ccc(C(=O)N(C)Cc3cscn3)c(N3CCC(N4CCc5ccccc5C4)CC3)n2)cc1 | < 5.90 | > 10000 nM | 5.76
15 | CCC(C)(C)n1nnnc1C(c1cc2ccc(C)cc2[nH]c1=O)N1CCN(c2ccccc2)CC1 (centres undefined) | 6.34 | > 100000 nM | 7.21
16 | N=c1ccn(CC(=O)N2CCCc3ccccc32)c2ccccc12 | 5.83 | > 100000 nM | 6.34
17 | O=C1NCCN1CCNS(=O)(=O)c1cc(C(F)(F)F)cc(C(F)(F)F)c1 | 5.92 | > 10000 nM | 6.10

Row | Structure (SMILES) | pEC50 [1] | CC50 [2] | pEC50 [3]
18 | Fc1cc(F)c(C2SCCN2C(=S)Nc2cccc(C(F)(F)F)c2)c(F)c1 (centres undefined) | 6.56 | > 100000 nM | 6.73
19 | O=C(Cn1ccc(=NCc2ccccc2)cc1)c1cccc([N+](=O)[O-])c1 | 6.40 | > 10000 nM | 6.36
20 | CCCCCCN(CCCCCC)CC(O)c1cc(-c2ccc(Cl)cc2)nc2c(C)cc(C)cc12 (centres undefined) | 5.15 | 51900 nM | 5.23
21 | Cc1ccn2c(NC(C)(C)CC(C)(C)C)c(-c3ccccc3OC(=O)c3ccc(C)c([N+](=O)[O-])c3)nc2c1 | 6.13 | > 10000 nM | 7.32
22 | CCCS(=O)(=O)N1CCC(CO)(Cc2ccccc2C(F)(F)F)CC1 | 5.90 | > 10000 nM | 6.16
23 | CO[C@H](C(=O)[C@@H](O)[C@@H](C)O)[C@@H]1Cc2cc3cc(O[C@H]4C[C@@H](O[C@@H]5C[C@@H](O)[C@@H](O)[C@@H](C)O5)[C@@H](O)[C@H](C)O4)c(C)c(O)c3c(O)c2C(=O)[C@H]1O[C@H]1C[C@@H](O[C@H]2C[C@@H](O[C@H]3C[C@](C)(O)[C@@H](O)[C@H](C)O3)[C@H](O)[C@@H](C)O2)[C@H](O)[C@H](C)O1 | 6.30 | > 10000 nM | 6.68
24 | Cc1ccc(-c2cc(C(F)(F)F)n3ncc(C(=O)Nc4cc(Cl)ccc4O)c3n2)cc1 | 5.73 | > 100000 nM | 5.85
25 | COc1ccc(C(=O)Oc2ccccc2-c2nc3cc(C)ccn3c2NC(C)(C)CC(C)(C)C)c(OC)c1 | 5.79 | > 10000 nM | 6.55
26 | CCN(CC)CCN(C)C1CCc2c(c(C(=O)N3CCCC3)nn2C)C1 (centres undefined) | < 6.37 | 12400 nM | < 6.13
27 | O=C(NCc1ccccc1)c1cnc(NCCCn2ccnc2)nc1NCCc1ccccc1 | 6.69 | 12800 nM | 6.49
28 | CN(C)c1ccc(C(=Cc2cc(-c3ccccc3)cc(-c3ccccc3)[o+]2)c2ccc(N(C)C)cc2)cc1 | 5.70 | 14400 nM | 6.05
29 | CCOC(=O)C1=C(C)N=c2sc(=Cc3ccc(I)o3)c(=O)n2C1c1ccccc1Cl (centres undefined) | 5.88 | > 5490 nM | 6.24
30 | COc1ccc(NC(=O)CCn2c(=S)oc3ccccc32)c([N+](=O)[O-])c1 | < 5.90 | > 10000 nM | < 6.46
31 | O=C(O)c1c(F)cccc1Cl | < 5.11 | > 100000 nM | 5.55
32 | O=C1C(Nc2ccccc2)=C(n2nnc3ccccc32)C(=O)c2ccccc21 | 5.69 | 6300 nM | 6.59
33 | OC(CNCC1COc2ccccc2O1)c1ccccc1 (centres undefined) | < 4.91 | > 100000 nM | 6.00
